T/C data for ten compounds are collected here from PubChem BioAssay AID342 (DTP/NCI, 2004).

Values joined by “and” are separate entries in the source; they are usually repeats but may differ in a detail not shown here. Identical values can stand only once.

As usually defined, the T/C is the ratio of treated to control.

The assay concerns Swiss mice, Sarcoma 180 sc, mean tumor weight T/C. The experiment in a line: NCI In Vivo Anticancer Drug Screen. Data for tumor model Sarcoma 180 (subcutaneous) in Swiss mice. As to conditions: endpoint: mean tumor weight, higher = larger tumour. In short, it runs like this: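 Readout is the ratio of treated-group measurement to vehicle-control measurement (T/C), based on survival or tumor size in mice carrying transplanted tumors.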

In the case of `Cc1cc(N=Nc2ccc(Sc3ccc(N=Nc4ccc(O)c(C(=O)O)c4)cc3)cc2)c(N)c(N=Nc2ccc(C(=O)O)cc2)c1N`, the T/C runs as follows: (dose: 6.25 mg/kg/injection, schedule: Q01DX007 (ip), vehicle: water) 114 % of control; (dose: 12.5 mg/kg/injection, schedule: Q01DX007 (ip), vehicle: water) 106 % of control; (dose: 25.0 mg/kg/injection, schedule: Q01DX007 (ip), vehicle: water) 83 % of control.

For the compound `C#C[C@]1(O)CC[C@H]2[C@@H]3CCc4cc(O)ccc4[C@H]3CC[C@@]21C`, the T/C is, setting by setting: (dose: 125.0 mg/kg/injection, schedule: Q#A X014 (sc), vehicle: steriod suspending solution) 30 % of control and 48 % of control and 50 % of control; (dose: 187.5 mg/kg/injection, schedule: Q#A X014 (sc), vehicle: steriod suspending solution) 39 % of control and 50 % of control and 51 % of control; (dose: 281.25 mg/kg/injection, schedule: Q#A X014 (sc), vehicle: steriod suspending solution) 62 % of control and 76 % of control.

Consider `O=C(Nc1ccc(C2=NCCCN2)cc1)c1ccc(C(=O)Nc2ccc(C3=NCCCN3)cc2)cc1`, for which the T/C runs as follows: (dose: 0.2 mg/kg/injection, schedule: Q01DX007 (ip), vehicle: water) 83 % of control; (dose: 0.4 mg/kg/injection, schedule: Q01DX007 (ip), vehicle: water) 106 % of control; (dose: 0.8 mg/kg/injection, schedule: Q01DX007 (ip), vehicle: water) 88 % of control; (dose: 1.0 mg/kg/injection, schedule: Q01DX007 (ip), vehicle: carboxymethylcellulose (CMC)) 80 % of control; (dose: 1.6 mg/kg/injection, schedule: Q01DX007 (ip), vehicle: water) 90 % of control; (dose: 2.0 mg/kg/injection, schedule: Q01DX007 (ip), vehicle: carboxymethylcellulose (CMC)) 93 % of control. Further, the T/C (dose: 8.0 mg/kg/injection, schedule: Q01DX007 (ip), vehicle: carboxymethylcellulose (CMC)) was 104 % of control; the T/C (dose: 16.0 mg/kg/injection, schedule: Q01DX007 (ip), vehicle: carboxymethylcellulose (CMC)) is 25 % of control; the T/C (dose: 32.0 mg/kg/injection, schedule: Q01DX007 (ip), vehicle: carboxymethylcellulose (CMC)) is 14 % of control.

For the compound `CC1C/C=C2\CSC(NC(=O)/C3=C\N(C/C=C/C=C/C(O)CC(O)CC(=O)N3)C2=O)C(=O)O1` (configuration not stated), the T/C was 111 % of control (dose: 18.75 mg/kg/injection, schedule: Q01DX007 (ip), vehicle: carboxymethylcellulose (CMC)); 112 % of control (dose: 37.5 mg/kg/injection, schedule: Q01DX007 (ip), vehicle: carboxymethylcellulose (CMC)); 114 % of control (dose: 150.0 mg/kg/injection, schedule: Q01DX007 (ip), vehicle: carboxymethylcellulose (CMC)); 68 % of control (dose: 187.0 mg/kg/injection, schedule: Q01DX007 (ip), vehicle: carboxymethylcellulose (CMC)); 119 % of control (dose: 250.0 mg/kg/injection, schedule: Q01DX007 (ip), vehicle: carboxymethylcellulose (CMC)); 91 % of control (dose: 375.0 mg/kg/injection, schedule: Q01DX007 (ip), vehicle: carboxymethylcellulose (CMC)). Where the note is “dose: 500.0 mg/kg/injection, schedule: Q01DX007 (ip), vehicle: carboxymethylcellulose (CMC)”, the T/C was 73 % of control.

Turning to `Nc1nc(SC2CCCCC2)c2[nH]cnc2n1`, the T/C reads like this: (dose: 120.0 mg/kg/injection, schedule: Q01DX007 (ip), vehicle: carboxymethylcellulose (CMC)) 89 % of control; (dose: 240.0 mg/kg/injection, schedule: Q01DX007 (ip), vehicle: carboxymethylcellulose (CMC)) 33 % of control.

For `CCCCn1cnc2c(Sc3c([N+](=O)[O-])ncn3C)nc(N)nc21`, the T/C by setting is: (dose: 2.75 mg/kg/injection, schedule: Q#A X014 (ip), vehicle: methylcellulose (MC)) 95 % of control; (dose: 4.15 mg/kg/injection, schedule: Q#A X014 (ip), vehicle: methylcellulose (MC)) 53 % of control; (dose: 6.25 mg/kg/injection, schedule: Q#A X014 (ip), vehicle: methylcellulose (MC)) 66 % of control; (dose: 9.37 mg/kg/injection, schedule: Q#A X014 (ip), vehicle: methylcellulose (MC)) 51 % of control.

Consider `S=P(N1CCCCC1)(N1CC1)N1CC1`, for which the T/C runs as follows: (dose: 55.0 mg/kg/injection, schedule: Q01DX007 (ip), vehicle: saline) 26 % of control; (dose: 84.0 mg/kg/injection, schedule: Q01DX007 (ip), vehicle: saline) 26 % of control; (dose: 125.0 mg/kg/injection, schedule: Q01DX007 (ip), vehicle: saline) 14 % of control; (dose: 188.0 mg/kg/injection, schedule: Q01DX007 (ip), vehicle: saline) 8 % of control.

For the compound `C[C@H]1C[C@@H]2[C@H]([C@@H](O)C[C@@]3(C)[C@H]2CC[C@]3(O)C(=O)CO)[C@@]2(C)C=CC(=O)C=C12`, the T/C is 82 % of control (dose: 6.25 mg/kg/injection, schedule: Q#A X014 (sc), vehicle: steriod suspending solution); 45 % of control (dose: 12.5 mg/kg/injection, schedule: Q01DX007 (sc), vehicle: water); 40 % of control (dose: 12.5 mg/kg/injection, schedule: Q#A X014 (sc), vehicle: steriod suspending solution); 41 % of control (dose: 25.0 mg/kg/injection, schedule: Q01DX007 (sc), vehicle: water); 33 % of control (dose: 25.0 mg/kg/injection, schedule: Q#A X014 (sc), vehicle: steriod suspending solution); 39 % of control (dose: 50.0 mg/kg/injection, schedule: Q01DX007 (sc), vehicle: water). The T/C is 27 % of control (dose: 50.0 mg/kg/injection, schedule: Q#A X014 (sc), vehicle: steriod suspending solution); 18 % of control (dose: 100.0 mg/kg/injection, schedule: Q01DX007 (sc), vehicle: water); 17 % of control (dose: 100.0 mg/kg/injection, schedule: Q#A X014 (sc), vehicle: steriod suspending solution).

Turning to `CC(=O)C1(/C(C)=C/C2C(C=O)=CC(C)(C)C2O)CC1` (configuration not stated), the T/C was 106 % of control (dose: 0.25 mg/kg/injection, schedule: Q01DX007 (ip), vehicle: saline); 59 % of control (dose: 0.5 mg/kg/injection, schedule: Q01DX007 (ip), vehicle: saline); 65 % of control (dose: 1.0 mg/kg/injection, schedule: Q01DX007 (ip), vehicle: saline); 67 % of control (dose: 2.0 mg/kg/injection, schedule: Q01DX007 (ip), vehicle: saline); 75 % of control (dose: 8.0 mg/kg/injection, schedule: Q01DX007 (ip), vehicle: saline); 94 % of control and 102 % of control (dose: 16.0 mg/kg/injection, schedule: Q01DX007 (ip), vehicle: saline). Also, the T/C reads like this: (dose: 32.0 mg/kg/injection, schedule: Q01DX007 (ip), vehicle: saline) 99 % of control; (dose: 64.0 mg/kg/injection, schedule: Q01DX007 (ip), vehicle: saline) 77 % of control; (dose: 128.0 mg/kg/injection, schedule: Q01DX007 (ip), vehicle: saline) 78 % of control.

On to `O=S(=O)(OCCCl)OCCCl`, for which the T/C was 54 % of control (dose: 31.2 mg/kg/injection, schedule: Q01DX007 (ip), vehicle: other) and 66 % of control (dose: 62.5 mg/kg/injection, schedule: Q01DX007 (ip), vehicle: other).
